From patent publication US7560482B2, “Inhibitors of plasmepsins” (The Johns Hopkins University, priority 2001, dated 2009)
Read-outs that look alike come from different tables or passages of the source.

What was measured:
[1] = tested on: chloroquine-sensitive Plasmodium falciparum (NF54); assay: malaria-infected human red blood cell assay, [3H]hypoxanthine incorporation; type: cell-based; details: P. falciparum NF54, 48 h + 20 h incubation; read-out: IC50, killing of malaria parasite in infected red blood cell assay
Protocol: The ability of some KNI compounds to kill the malaria parasite was evaluated by measuring the IC50 in a malaria-infected human red blood cell assay. Activity was determined by measuring the incorporation of [^3H]hypoxanthine. Briefly, chloroquine-sensitive Plasmodium falciparum (NF54) were maintained in a 2.4% suspension of type O^+ human erythrocytes in RPMI 1640, supplemented with 25 mM HEPES, 27 mM NaHCO3, and 10% heat-inactivated human type O^+ serum, under 3% O2, 4% CO2, and 93% N2. 20 mM stock solutions of KNI-764 and KNI-727 and KNI-840 were prepared in DMSODMSO solutions were diluted 500 fold in medium, serially diluted in 0.2% DMSO in medium, then 100 μl aliquots were pipetted into microtiter plate wells. Provisional EC50 values were obtained in a survey of ten 5-fold dilutions yielding final concentrations (in quadruplicate) of 0.00001-20 μM. Plates included 8 wells of no drug controls (4 with and 4 without DMSO) and 4 wells in uninfected erythrocytes. […] The filters were washed four times with 3 ml water per sample spot, dried under a heat lamp, and counted in scintillation cocktail. Decays per minute values were downloaded and analyzed in order to yield the mean and standard deviation at each drug concentration. […]

[2] = biological target: T1, plasmepsin II from Plasmodium falciparum (Plm II) (Plasmodium falciparum, UniProt P46925); assay: Plasmepsin II inhibition assay, hydrolysis of chromogenic substrate; type: biochemical; details: for Discrimination Factor: Fold Selectivity for Plasmepsin II over Cathepsin D: ratio of the Ki for Cathepsin D to the Ki for Plasmepsin II
T1 construct: made in house; host or cells: Escherichia coli
Protocol: FIG. 7A-C. Inhibition of Plasmepsin II from Plasmodium falciparum by KNI-10033, KNI-10030 and KNI-10006 at 20° C. in 10 mM sodium citrate, 100 mM NaCl, 2% DMSO, pH 4.0. The inhibition constants are 3 nM, 11 nM and 0.5 rLM respectively.
(§1) The specific activity of plasmepsin II from Plasmodium falciparum (Plm II) cloned in and purified from Escherchia coli and commercially available human Cathepsin D were measured by following the hydrolysis of the chromogenic substrate Ala-Leu-Glu-Arg-Thr-nPhe-Phe-Ser-Phe-Pro-Thr-OH (California Peptide Research Inc., Napa, Calif.). The decrease in absorbance upon hydrolysis is monitored at 300 nm. Typical Plasmepsin II preparations hydrolyze chromogenic substrate at 4-5 s^−1 at 37° C. The inhibition assays were performed at 25° C. in 10 mM sodium formate, 2% DMSO, pH 4.0. These pH conditions mimic the conditions in the food vacuole of the parasite. […] Inhibition constants (Ki) for the inhibitors are obtained at the desired temperature and solvent conditions by measuring the rate of substrate hydrolysis at increasing amounts of inhibitors. Exemplary results from three compounds (KNI-10033, KNI-10030 and KNI-10006) are shown in FIG. 7A-C, and the results obtained with all KNI compounds tested are given in Table 1.

human Cathepsin D = biological target: T2, human Cathepsin D (Homo sapiens, UniProt P07339); assay: Cathepsin D inhibition assay, hydrolysis of chromogenic substrate; type: biochemical
T2 construct: purchased
Protocol: as §1

[3] = 25° C., 10 mM sodium formate, 2% DMSO, pH 4.0, fit to competitive inhibition, read-out: Ki Plm II
[4] = Table 2, read-out: Ki Plasmepsin II
[5] = 25° C., 10 mM sodium formate, 2% DMSO, pH 4.0, fit to competitive inhibition, read-out: Ki CatD
[6] = Table 2, read-out: Ki Cathepsin D

T2 sequence (P07339 65-412): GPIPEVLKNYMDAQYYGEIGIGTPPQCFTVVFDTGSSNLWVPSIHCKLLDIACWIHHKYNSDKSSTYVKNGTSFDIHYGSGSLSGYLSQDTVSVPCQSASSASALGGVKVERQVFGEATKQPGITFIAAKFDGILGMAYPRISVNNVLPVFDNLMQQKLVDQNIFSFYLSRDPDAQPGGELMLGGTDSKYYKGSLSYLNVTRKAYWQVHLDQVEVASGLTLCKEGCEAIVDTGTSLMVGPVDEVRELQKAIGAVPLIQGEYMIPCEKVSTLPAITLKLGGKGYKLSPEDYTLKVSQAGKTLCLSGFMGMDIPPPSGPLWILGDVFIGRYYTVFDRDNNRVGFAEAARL
T1 sequence (P46925 125-453): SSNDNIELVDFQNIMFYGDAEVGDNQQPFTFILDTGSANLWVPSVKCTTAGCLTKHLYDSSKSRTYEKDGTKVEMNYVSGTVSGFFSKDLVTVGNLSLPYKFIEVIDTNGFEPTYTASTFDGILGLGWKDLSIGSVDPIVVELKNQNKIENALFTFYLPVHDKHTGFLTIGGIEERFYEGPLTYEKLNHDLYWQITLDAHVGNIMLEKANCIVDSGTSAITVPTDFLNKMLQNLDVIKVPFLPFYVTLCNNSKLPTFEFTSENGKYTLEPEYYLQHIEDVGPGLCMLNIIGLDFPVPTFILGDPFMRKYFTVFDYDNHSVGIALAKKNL

For `Cc1ccccc1CNC(=O)[C@H]1N(C(=O)[C@@H](O)[C@H](Cc2ccccc2)NC(=O)c2cccc(O)c2C)CSC1(C)C` [KNI-764], the IC50 [1] was 10000 nM, the “inhibition constants against Plasmepsin II, in words” value (from here on “inhibition constants”) [2] was “nanomolar and subnanomolar range” and the Ki [2, 3] was 30 ± 9 nM. For the same molecule, the Ki [2, 4] was 30 nM, the “Discrimination Factor: Fold Selectivity for Plasmepsin II over Cathepsin D” value (“Discrimination Factor: Fold Selectivity” for short) [2] was about 7 and the Ki (human Cathepsin D; [5]) was 201 ± 20 nM. It also gave a Ki (human Cathepsin D; [6]) of 201 nM.

In the case of `Cc1ccccc1CNC(=O)[C@H]1N(C(=O)[C@@H](O)[C@H](Cc2ccccc2)NC(=O)COc2c(C)cccc2C)CSC1(C)C` [KNI-840], the IC50 [1] is reported as 10000 nM, the “inhibition constants” value [2] is reported as “nanomolar and subnanomolar range” and the Ki [2, 3] is reported as 20 ± 10 nM. The “discrimination factor / Cathepsin D selectivity” value ([2]; Plasmepsin II versus Cathepsin D, fold) was 4, the Ki [2, 4] was 20 nM and the “Discrimination Factor: Fold Selectivity” value [2] was 4. It also gave a Ki ([2]; read-out: Ki (Plasmepsin II), unit inferred) of about 20 nM, a Ki (human Cathepsin D; [5]) of 80 ± 90 nM and a Ki (human Cathepsin D; [6]) of 80 nM.

For `CC(C)(C)NC(=O)[C@H]1N(C(=O)[C@@H](O)[C@H](Cc2ccccc2)NC(=O)[C@H](Cc2ccccc2)NC(=O)COc2cccc3cnccc23)CSC1(C)C` [KNI-10051], the Ki [2, 3] was 186 ± 14 nM and the Ki (human Cathepsin D; [5]) was 6510 ± 1220 nM.

`Cc1ccc(CNC(=O)[C@H]2N(C(=O)[C@@H](O)[C@H](Cc3ccccc3)NC(=O)COc3c(C)cccc3C)CSC2(C)C)cc1` [KNI-10052] was tested, and the Ki [2, 3] was 572 ± 54 nM and the Ki (human Cathepsin D; [5]) was 1320 ± 152 nM.

`Cc1cccc(CNC(=O)[C@H]2N(C(=O)[C@@H](O)[C@H](Cc3ccccc3)NC(=O)COc3c(C)cccc3C)CSC2(C)C)c1` [KNI-10053] was tested, and the “inhibition constants” value [2] was “nanomolar and subnanomolar range”, the Ki [2, 3] was 41 ± 7 nM and the Ki [2, 4] was 41 nM. The “Discrimination Factor: Fold Selectivity” value [2] was about 9, the Ki (human Cathepsin D; [5]) was 360 ± 54 nM and the Ki (human Cathepsin D; [6]) was 360 nM.

Molecule `Cc1cccc(C)c1OCC(=O)NC(Cc1ccccc1)C(O)C(=O)N1CSC(C)(C)C1C(=O)NCc1ccc(O)cc1` (stereo not shown) [KNI-10054] has a Ki [2, 3] of 273 ± 41 nM and a Ki (human Cathepsin D; [5]) of 1640 ± 146 nM.

With `CC(C)(C)NC(=O)C1N(C(=O)C(O)C(Cc2ccccc2)NC(=O)C(CCC(N)=O)NC(=O)COc2cccc3cnccc23)CSC1(C)C` (stereo not shown) [KNI-10055] the Ki [2, 3] was 1170 ± 71 nM and the Ki (human Cathepsin D; [5]) was 6280 ± 981 nM.

In the case of `CC(C)C(NC(=O)COc1ccccc1)C(=O)NC(Cc1ccccc1)C(O)C(=O)N1CSC(C)(C)C1C(=O)NC(C)(C)C` (stereo not shown) [KNI-10056], the Ki [2, 3] is reported as 1770 ± 154 nM and the Ki (human Cathepsin D; [5]) is reported as 1280 ± 161 nM.

`CCSC[C@H](NC(=O)COc1cccc2cnccc12)C(=O)N[C@@H](Cc1ccccc1)[C@H](O)C(=O)N1CSC(C)(C)[C@H]1C(=O)NC(C)(C)C` [KNI-10057] was tested, and the Ki [2, 3] was 428 ± 21 nM and the Ki (human Cathepsin D; [5]) was 5300 ± 633 nM.
